# Source: ChEMBL document CHEMBL1201862, “PubChem BioAssay data set” (2004)
# The source made the active and inactive calls.
# Columns and labels:
# [1] = target: Voltage-gated inwardly rectifying potassium channel KCNH2 (Homo sapiens, UniProt Q12809); assay: concentration-dependent hERG rescue from blockers – cell-based, thallium flux, dose response (AID 2121); assay type: ADME
# Caspase-6 = target: T1, Caspase-6 (Homo sapiens, UniProt P55212); assay: inhibition of CASP6 peptide cleavage – biochemical, VEID-R110 fluorescence, cherry-pick, dose response (AID 720632)
# T1 sequence (P55212 whole entry): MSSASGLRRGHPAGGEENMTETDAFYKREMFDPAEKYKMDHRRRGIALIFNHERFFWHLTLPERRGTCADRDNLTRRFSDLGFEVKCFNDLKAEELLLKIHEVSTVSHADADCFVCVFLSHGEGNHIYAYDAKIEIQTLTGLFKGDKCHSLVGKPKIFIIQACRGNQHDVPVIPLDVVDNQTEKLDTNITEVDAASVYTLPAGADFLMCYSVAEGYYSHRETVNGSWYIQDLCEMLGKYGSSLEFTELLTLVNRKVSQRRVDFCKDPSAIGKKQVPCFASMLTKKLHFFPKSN
# [2] = target: Serine/threonine-protein phosphatase (Homo sapiens, UniProt Q9BPW0); assay: inhibition of protein phosphatase 5 activity – biochemical, fluorescence, dose response (AID 2395)
# [3] = target: T2, Replicative DNA helicase DnaB (Mycobacterium tuberculosis, UniProt P9WMR3); assay: DnaB intein splicing inhibitors, dose response, biochemical, cell-free fluorescence (AID 449749); assay type: functional
# T2 sequence (P9WMR3 whole entry): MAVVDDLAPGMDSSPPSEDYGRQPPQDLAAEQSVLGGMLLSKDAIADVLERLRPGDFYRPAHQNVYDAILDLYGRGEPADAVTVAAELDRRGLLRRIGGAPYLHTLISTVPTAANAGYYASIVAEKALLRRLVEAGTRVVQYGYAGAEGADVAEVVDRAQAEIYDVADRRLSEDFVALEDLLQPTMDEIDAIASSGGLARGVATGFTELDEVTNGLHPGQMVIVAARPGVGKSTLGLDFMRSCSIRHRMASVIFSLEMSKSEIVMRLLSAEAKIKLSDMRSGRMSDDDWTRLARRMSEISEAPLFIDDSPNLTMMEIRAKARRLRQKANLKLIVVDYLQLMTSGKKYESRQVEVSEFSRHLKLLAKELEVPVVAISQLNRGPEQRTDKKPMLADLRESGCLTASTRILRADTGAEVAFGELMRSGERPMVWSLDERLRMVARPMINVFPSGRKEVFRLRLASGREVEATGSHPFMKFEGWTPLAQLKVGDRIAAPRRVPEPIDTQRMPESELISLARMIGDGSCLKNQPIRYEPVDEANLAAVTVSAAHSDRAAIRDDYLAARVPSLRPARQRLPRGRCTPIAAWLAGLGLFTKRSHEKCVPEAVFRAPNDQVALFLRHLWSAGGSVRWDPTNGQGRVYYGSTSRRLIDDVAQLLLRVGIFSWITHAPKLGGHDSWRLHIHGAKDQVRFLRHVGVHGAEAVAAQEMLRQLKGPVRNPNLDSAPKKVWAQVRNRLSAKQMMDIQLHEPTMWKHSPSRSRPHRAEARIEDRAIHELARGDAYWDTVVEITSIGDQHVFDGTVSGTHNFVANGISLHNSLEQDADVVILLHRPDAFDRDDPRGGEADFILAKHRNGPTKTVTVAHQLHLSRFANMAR
# [4] = target: Serine/threonine-protein phosphatase PP1-alpha catalytic subunit (Homo sapiens, UniProt P62136); assay: inhibition of protein phosphatase 1 activity – biochemical, fluorescence, dose response (AID 2394)
# Protein RecA = target: T3, Protein RecA (Mycobacterium tuberculosis, UniProt P9WHJ3); assay: Fluorescence Cell-Free Homogeneous Dose Retest to Identify Inhibitors of RecA-Intein Splicing Activity. [Related pubchem assays (depositor defined):AID2097, AID2223, AID489010, AID492950]; assay type: functional
# T3 sequence (P9WHJ3 whole entry): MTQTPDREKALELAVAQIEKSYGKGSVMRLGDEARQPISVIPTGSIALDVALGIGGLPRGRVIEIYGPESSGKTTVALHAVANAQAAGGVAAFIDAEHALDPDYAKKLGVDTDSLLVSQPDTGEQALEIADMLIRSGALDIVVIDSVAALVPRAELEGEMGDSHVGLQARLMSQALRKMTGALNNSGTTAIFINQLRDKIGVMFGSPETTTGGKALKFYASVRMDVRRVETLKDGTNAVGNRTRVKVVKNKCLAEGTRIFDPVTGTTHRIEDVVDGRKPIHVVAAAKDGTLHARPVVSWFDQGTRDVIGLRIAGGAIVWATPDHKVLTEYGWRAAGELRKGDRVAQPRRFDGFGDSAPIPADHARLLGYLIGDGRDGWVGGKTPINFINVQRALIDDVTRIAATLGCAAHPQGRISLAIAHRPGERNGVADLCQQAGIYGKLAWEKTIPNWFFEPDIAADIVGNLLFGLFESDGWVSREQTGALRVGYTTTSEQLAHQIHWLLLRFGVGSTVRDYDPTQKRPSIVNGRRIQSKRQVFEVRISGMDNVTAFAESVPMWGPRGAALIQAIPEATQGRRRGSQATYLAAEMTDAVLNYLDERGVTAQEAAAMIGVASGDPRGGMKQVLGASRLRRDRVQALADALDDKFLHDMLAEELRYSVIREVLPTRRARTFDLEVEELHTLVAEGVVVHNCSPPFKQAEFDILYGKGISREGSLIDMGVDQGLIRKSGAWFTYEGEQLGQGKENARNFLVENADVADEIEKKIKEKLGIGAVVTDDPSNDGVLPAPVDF
# [5] = target: T4, Tyrosyl-DNA phosphodiesterase 2 (Homo sapiens, UniProt O95551); assay: potency against TDP2 phosphodiesterase activity – biochemical, epi absorbance, IC50, dose response (AID 743297)
# T4 sequence (O95551 whole entry): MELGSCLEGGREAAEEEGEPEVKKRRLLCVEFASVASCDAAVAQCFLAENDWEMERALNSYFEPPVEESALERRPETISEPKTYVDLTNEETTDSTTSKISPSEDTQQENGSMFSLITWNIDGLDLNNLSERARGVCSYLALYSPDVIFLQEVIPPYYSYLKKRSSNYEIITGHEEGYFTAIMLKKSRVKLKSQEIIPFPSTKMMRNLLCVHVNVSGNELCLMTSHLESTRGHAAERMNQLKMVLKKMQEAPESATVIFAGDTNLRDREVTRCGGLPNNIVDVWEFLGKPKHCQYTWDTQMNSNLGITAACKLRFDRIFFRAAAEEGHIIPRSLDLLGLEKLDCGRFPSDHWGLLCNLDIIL
# [6] = M. tuberculosis growth inhibition, HTS (AID 449762); assay type: functional
# Protein skinhead-1 = target: T5, Protein skinhead-1 (Caenorhabditis elegans, UniProt P34707); assay type: functional
# T5 sequence (P34707 whole entry): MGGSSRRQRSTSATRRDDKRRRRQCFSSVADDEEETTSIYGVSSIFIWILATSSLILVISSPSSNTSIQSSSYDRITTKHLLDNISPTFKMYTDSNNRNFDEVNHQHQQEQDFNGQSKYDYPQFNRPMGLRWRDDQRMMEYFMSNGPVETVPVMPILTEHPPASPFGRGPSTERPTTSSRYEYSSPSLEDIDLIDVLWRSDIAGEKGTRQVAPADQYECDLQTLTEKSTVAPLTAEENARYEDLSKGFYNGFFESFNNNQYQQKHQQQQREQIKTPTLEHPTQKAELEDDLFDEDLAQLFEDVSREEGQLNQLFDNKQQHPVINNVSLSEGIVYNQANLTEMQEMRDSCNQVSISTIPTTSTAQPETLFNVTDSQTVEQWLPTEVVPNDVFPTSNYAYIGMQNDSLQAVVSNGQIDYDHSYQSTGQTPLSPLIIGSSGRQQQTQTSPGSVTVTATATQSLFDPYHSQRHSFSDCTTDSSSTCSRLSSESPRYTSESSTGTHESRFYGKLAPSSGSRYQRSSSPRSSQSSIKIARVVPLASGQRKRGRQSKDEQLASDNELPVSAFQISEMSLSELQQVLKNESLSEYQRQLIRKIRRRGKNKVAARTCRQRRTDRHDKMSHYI
# Jurkat = assay: blockers of NF-kB activation in T cells – Jurkat, luciferase reporter, luminescence, B- and T-cell, dose response (AID 489004); assay type: functional, cell-based; details: Homo sapiens;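 also: NF-kB luciferase reporter Jurkat cells stimulated with PMA plus ionomycin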
# [7] = target: Sphingosine 1-phosphate receptor 2 (Homo sapiens, UniProt O95136); assay: Dose Response Cell Based Assay for Antagonists of the S1P2 Receptor. [Related pubchem assays: 856, 736 ]; assay type: functional
# INS1 = assay: INS-1E survival protection against cytokine death – cell-based, luminescence, retest, dose response (AID 449756); assay type: functional; details: Rattus norvegicus;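 also: cell death triggered by IL-1 beta plus TNF-alpha plus IFN-gamma mixture; protective hits raise ATP signal compared with cytokine alone wells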
# [8] = NIH-3T3 fibroblast cytotoxicity, dose response, cytotoxicity control, cell-based, fluorescence, Alamar Blue, secondary assay (AID 2327); assay type: functional;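 also: NIH-3T3 mouse fibroblasts cultured with fluconazole at 8 µg/mL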
# [9] = viability loss in Vero cells – cytotoxicity control for Vif-APOBEC3G degradation inhibitor project, dose response (AID 1117358); assay type: functional; details: Vero
# [10] = HEK-293T viability loss, compound-treated – cell-based, uHTS hits, cytotoxicity control for B/T-cell NF-kB inhibitor project, dose response (AID 489019); assay type: functional;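 also: IC50 reflects cytotoxicity as loss of cell viability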
# [11] = fluconazole-exposed Candida albicans growth modulators – fluorescence, retest, confirmation (AID 2467); assay type: functional, cell-based
# [12] = target: Complement C1s subcomponent (Homo sapiens, UniProt P09871); assay: Complement C1s ELISA. [Related pubchem assays: 538, 787 ]; assay type: functional
# [13] = test system: Streptococcus sp. 'group A'; assay: Streptococcus pyogenes SK(-)GAS viability under kanamycin – luminescence, BacTiterGlo, confirmation, counter-screen for streptokinase expression inhibitor project, dose response (AID 1900); assay type: functional, organism-based
# 14-3-3 protein gamma = 14-3-3 protein gamma (Homo sapiens, UniProt P61981); assay: modulators of 14-3-3 gamma client binding – dose response (AID 711); assay type: functional
# Streptococcus = assay: GAS UMAA2166 growth inhibition – luminescence, BacTiterGlo, counter-screen for streptokinase expression inhibitor project, dose response (AID 1915); assay type: functional, organism-based;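 also: potency for reduction of bacterial viability or growth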
# [14] = target: Heat shock protein HSP 90-alpha (Homo sapiens, UniProt P07900); assay type: functional, organism-based
# [15] = target: T6, RNA-binding protein pos-1 (Caenorhabditis elegans, UniProt G5EF15); assay: disruptors of C. elegans POS-1 RNA interaction – biochemical, fluorescence polarization, dose response (AID 1964);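 also: purified POS-1 fused to maltose binding protein made in E. coli; potency of compounds blocking POS-1 binding to fluorescent RNA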
# T6 sequence (G5EF15 whole entry): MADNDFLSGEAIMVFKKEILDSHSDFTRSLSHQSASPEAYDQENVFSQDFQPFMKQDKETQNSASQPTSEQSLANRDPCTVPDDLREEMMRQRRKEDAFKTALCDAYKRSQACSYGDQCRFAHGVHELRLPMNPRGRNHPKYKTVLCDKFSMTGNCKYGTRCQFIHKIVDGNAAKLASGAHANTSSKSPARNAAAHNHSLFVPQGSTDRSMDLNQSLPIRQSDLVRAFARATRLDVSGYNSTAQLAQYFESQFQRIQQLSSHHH
# [16] = target: T7, Zinc finger protein mex-5 (Caenorhabditis elegans, UniProt Q9XUB2); assay: potency of MEX-5 RNA-binding blockers – biochemical, C. elegans, fluorescence polarization, dose response (AID 1960)
# T7 sequence (Q9XUB2 whole entry): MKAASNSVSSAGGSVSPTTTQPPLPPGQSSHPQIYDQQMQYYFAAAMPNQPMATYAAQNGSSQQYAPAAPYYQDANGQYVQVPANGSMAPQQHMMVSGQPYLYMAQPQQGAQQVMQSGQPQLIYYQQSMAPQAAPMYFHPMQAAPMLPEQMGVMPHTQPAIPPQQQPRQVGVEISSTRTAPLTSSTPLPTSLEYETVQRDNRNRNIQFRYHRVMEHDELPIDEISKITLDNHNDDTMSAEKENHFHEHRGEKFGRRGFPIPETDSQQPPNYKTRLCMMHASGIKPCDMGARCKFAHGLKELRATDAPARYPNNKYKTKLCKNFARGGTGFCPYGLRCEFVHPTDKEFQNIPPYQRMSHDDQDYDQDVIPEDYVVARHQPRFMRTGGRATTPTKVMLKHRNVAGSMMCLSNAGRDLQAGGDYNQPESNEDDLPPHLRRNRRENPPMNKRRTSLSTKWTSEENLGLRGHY
# Streptokinase A = target: T8, Streptokinase A (Streptococcus pyogenes serotype M1, UniProt P10520); assay: viability-normalized secreted streptokinase activity reduction – plasminogen activation absorbance, OD405, dose response (AID 1914); assay type: functional, Streptococcus pyogenes M1 GAS;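 also: secreted streptokinase activity via plasminogen activation per viability signal from cell pellet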
# T8 sequence (P10520 whole entry): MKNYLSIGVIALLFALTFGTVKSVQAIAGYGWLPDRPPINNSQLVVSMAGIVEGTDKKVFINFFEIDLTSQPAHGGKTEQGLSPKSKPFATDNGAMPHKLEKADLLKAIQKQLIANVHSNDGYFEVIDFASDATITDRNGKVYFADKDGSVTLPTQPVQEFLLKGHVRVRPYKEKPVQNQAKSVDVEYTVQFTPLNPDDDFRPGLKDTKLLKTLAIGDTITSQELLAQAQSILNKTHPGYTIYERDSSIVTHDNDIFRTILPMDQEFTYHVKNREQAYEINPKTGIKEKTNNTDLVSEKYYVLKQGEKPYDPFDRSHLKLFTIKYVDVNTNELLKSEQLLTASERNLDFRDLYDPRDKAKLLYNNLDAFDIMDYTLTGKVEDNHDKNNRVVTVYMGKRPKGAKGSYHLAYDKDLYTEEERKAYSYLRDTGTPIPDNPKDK
# Sequence of Serine/threonine-protein phosphatase PP1-alpha catalytic subunit (P62136 whole entry): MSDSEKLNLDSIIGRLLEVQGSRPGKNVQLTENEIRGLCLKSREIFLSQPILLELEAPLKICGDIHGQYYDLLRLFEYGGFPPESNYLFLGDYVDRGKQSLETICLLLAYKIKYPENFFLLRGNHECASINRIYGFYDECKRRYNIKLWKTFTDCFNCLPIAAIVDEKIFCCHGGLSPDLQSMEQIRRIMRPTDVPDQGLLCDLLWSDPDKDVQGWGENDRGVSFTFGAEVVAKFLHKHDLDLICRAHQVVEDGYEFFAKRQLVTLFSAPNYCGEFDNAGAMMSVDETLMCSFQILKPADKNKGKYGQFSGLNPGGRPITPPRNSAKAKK
# Sequence of Serine/threonine-protein phosphatase (Q9BPW0 whole entry): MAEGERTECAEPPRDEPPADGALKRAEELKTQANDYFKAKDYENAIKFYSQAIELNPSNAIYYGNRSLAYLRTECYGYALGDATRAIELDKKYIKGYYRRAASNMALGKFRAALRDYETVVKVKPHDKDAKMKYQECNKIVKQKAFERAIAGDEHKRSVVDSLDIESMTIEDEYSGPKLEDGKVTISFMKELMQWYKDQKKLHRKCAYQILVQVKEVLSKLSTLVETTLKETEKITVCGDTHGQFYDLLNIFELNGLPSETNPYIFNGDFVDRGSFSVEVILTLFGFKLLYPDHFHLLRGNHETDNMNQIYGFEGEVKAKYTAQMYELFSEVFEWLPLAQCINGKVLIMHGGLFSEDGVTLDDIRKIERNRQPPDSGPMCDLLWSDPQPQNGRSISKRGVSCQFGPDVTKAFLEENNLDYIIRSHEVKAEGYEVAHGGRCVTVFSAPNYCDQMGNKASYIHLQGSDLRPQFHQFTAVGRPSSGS
# Sequence of Complement C1s subcomponent (P09871 16-437 limits assumed): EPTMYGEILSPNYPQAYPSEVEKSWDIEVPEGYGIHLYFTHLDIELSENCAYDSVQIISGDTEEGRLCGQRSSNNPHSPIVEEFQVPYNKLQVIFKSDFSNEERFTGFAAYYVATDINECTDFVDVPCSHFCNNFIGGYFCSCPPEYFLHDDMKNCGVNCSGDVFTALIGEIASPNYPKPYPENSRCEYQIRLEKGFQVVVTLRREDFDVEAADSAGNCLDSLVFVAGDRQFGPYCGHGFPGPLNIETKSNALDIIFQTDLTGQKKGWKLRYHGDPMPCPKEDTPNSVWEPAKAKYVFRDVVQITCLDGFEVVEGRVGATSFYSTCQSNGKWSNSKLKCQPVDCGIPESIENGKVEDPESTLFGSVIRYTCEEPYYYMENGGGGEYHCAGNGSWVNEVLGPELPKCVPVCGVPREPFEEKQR
# Sequence of Complement C1s subcomponent (P09871 438-688 limits assumed): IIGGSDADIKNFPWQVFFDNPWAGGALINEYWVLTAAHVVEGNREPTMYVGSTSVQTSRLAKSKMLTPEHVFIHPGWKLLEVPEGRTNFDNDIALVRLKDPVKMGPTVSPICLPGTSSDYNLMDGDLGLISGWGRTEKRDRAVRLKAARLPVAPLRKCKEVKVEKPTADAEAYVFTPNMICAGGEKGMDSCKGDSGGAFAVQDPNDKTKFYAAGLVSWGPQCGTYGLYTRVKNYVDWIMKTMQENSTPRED
# Sequence of Sphingosine 1-phosphate receptor 2 (O95136 whole entry): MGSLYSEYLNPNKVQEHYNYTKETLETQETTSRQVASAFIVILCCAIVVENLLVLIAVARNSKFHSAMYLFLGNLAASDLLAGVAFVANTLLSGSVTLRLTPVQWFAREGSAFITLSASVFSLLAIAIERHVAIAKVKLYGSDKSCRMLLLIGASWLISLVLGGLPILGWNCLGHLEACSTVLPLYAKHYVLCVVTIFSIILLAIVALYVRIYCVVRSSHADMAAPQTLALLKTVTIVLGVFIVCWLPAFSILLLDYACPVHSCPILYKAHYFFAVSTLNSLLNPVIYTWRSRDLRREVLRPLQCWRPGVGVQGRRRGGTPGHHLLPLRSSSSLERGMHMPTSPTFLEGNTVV
# Sequence of 14-3-3 protein gamma (P61981 whole entry): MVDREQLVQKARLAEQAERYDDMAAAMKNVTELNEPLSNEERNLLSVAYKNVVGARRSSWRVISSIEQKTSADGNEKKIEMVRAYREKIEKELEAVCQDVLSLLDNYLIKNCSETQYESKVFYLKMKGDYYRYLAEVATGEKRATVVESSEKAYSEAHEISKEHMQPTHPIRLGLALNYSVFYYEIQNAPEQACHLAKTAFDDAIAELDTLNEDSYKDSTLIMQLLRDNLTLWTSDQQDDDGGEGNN
# Sequence of Voltage-gated inwardly rectifying potassium channel KCNH2 (Q12809 whole entry): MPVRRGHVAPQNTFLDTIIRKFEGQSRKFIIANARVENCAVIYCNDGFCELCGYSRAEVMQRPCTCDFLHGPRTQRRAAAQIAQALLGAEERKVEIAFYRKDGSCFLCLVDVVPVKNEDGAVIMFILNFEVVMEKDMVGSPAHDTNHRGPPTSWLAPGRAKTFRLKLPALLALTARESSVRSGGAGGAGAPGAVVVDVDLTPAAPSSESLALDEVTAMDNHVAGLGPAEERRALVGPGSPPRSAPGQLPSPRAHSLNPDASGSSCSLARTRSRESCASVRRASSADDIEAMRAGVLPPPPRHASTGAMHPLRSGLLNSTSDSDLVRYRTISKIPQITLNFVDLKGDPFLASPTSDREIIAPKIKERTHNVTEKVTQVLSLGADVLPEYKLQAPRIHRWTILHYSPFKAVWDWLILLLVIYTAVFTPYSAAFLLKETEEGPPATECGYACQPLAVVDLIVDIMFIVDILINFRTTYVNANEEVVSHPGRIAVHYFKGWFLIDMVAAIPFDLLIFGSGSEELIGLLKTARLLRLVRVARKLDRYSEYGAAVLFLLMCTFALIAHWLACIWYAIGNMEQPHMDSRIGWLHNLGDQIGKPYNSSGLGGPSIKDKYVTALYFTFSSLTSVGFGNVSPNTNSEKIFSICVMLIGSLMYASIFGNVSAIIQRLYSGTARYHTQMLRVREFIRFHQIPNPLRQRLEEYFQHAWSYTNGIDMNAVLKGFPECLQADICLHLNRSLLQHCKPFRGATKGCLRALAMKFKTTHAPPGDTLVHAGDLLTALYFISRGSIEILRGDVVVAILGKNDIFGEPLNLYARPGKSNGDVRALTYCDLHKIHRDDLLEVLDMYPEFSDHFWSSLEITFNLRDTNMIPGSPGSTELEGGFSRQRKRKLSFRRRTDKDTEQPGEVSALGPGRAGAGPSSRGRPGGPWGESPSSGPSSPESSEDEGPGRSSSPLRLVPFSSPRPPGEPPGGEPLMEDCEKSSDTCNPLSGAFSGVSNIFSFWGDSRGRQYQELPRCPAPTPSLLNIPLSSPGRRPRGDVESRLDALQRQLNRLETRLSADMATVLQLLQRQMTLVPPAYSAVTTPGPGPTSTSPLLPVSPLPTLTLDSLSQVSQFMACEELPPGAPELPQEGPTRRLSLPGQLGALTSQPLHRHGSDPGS
compound,measurement,setting,value
CCN=C(S)N=NC1=C(O)c2cccc3cccc1c23,EC50,[1],0.26 µM (active)
Oc1nc(Nc2ccccc2)cc2cc(Br)ccc12,AC50,Caspase-6,6.04 µM (active)
same,IC50,[2],> 67 µM (not active)
same,AC50,[3],> 120 µM (inactive)
same,IC50,[4],46.9 µM (not active)
same,EC50,Protein RecA,7 µM (active)
same,IC50,[5],32.2 µM (inactive)
Cc1nc2ccc(NC(=O)N(C(C)C)C(C)C)cc2s1,IC50,[6],> 100 µM (active)
CCCCCCCCNc1ncnc2ccccc12,IC50,Protein skinhead-1,33 µM (active)
same,IC50,Jurkat,> 80 µM (inactive)
same,IC50,[7],1.23 µM (active)
same,AC50,INS1,0.232 µM (active)
same,EC50,[8],> 160 µM (inactive)
same,CC50,[9],> 40 µM (active)
same,IC50,[10],> 80 µM (inactive)
same,EC50,[11],3.26 µM (active)
O=c1oc(-c2ccco2)nc2ccccc12,IC50,[12],> 50 µM (not active)
Nc1nonc1C(=O)NCC/N=C/c1cc(Cc2ccccc2)cc(Br)c1O,EC50,[13],5.35 µM (active)
same,IC50,14-3-3 protein gamma,> 50 µM (not active)
same,EC50,Streptococcus,9.66 µM (active)
same,AC50,[14],1.24 µM (active)
same,EC50,[15],> 300 µM (not active)
same,EC50,[16],> 300 µM (not active)
same,EC50,Streptokinase A,> 150 µM (not active)
